# From article PMC5706701, “Development of a homogenous high-throughput assay for inositol hexakisphosphate kinase 1 activity” (PLoS ONE, 2017)
# Structures can show the parent of a compound that is named as a salt. Where two headings read alike, the source gives them in different places.
# Target: T1, Human IP6K1 (Homo sapiens, UniProt Q92551)
# T1 construct: GST (N, cleaved yes); made in house; host or cells: C43 E. coli, pGEX-6P-2
# Assay: IP6K1 high-throughput screen of the Sigma LOPAC (ADP-Glo Max, single point);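 note: final compound concentration 10µM in 5% DMSO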
# Assay type: biochemical
# [1] = Sigma LOPAC single-point screen, ADP-Glo Max raw signal per well
# [2] = Sigma LOPAC single-point screen, Z-score from plate average and StDev
# [3] = LOPAC single-point screen, ADP-Glo Max raw signal per well
# [4] = LOPAC single-point screen, Z-score from raw signal with plate average and StDev
# [5] = LOPAC single-point screen, Z-score against plate average and StDev
# [6] = LOPAC single-point screen, ADP-Glo Max luminescence raw signal per well
# [7] = LOPAC single-point screen, Z-score relative to plate average and StDev
# [8] = LOPAC single-point screen, Z-score from plate average and StDev
# T1 sequence (Q92551 whole entry): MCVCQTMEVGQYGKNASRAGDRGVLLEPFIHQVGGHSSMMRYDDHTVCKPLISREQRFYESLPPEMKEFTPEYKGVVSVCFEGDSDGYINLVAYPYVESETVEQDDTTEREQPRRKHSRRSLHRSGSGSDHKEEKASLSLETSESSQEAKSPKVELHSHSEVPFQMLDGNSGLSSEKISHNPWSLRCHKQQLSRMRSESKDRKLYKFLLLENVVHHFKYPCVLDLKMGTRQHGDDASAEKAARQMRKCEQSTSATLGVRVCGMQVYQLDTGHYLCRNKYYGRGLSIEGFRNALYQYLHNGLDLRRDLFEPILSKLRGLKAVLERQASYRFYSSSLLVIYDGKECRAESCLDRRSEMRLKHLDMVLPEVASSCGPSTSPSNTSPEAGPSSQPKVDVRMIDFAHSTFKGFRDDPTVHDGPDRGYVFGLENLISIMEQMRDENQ
compound,measurement,setting,value
Brc1ccc([C@H]2CN3CCSC3=N2)cc1.O=C(O)C(=O)O [S(-)-p-Bromotetramisole oxalate],Raw Signal,[1],61891
same,Z-score,[2],0.7006
COc1ccccc1OCC(O)CN1CCN(CC(=O)Nc2c(C)cccc2C)CC1 (stereo not shown) [Ranolazine dihydrochloride],Raw Signal,[3],54866
same,Z-score,[4],-0.2249
CCN(CC)CCNC(=O)c1cc(Cl)c(N)cc1OC.Cl [Metoclopramide hydrochloride],Raw Signal,[3],53948
same,Z-score,[5],-0.07486
C[C@]12CC[C@@H]3c4ccc(O)cc4CC[C@H]3[C@@H]1CC[C@@H]2O [beta-Estradiol],Raw Signal,[6],51790
same,Z-score,[7],-0.6858
O=c1cc(-c2ccc(O)cc2)oc2cc(O)cc(O)c12 [Apigenin],Raw Signal,[6],54339
same,Z-score,[7],-0.6295
CCc1cc(Cl)c(O)c(C(=O)NC[C@@H]2CCCN2CC)c1OC.Cl [S-(-)-Eticlopride hydrochloride],Raw Signal,[6],63565
same,Z-score,[8],1.706
C[N+]1(C)[C@@H]2CC[C@H]1C[C@@H](OC(=O)C(CO)c1ccccc1)C2 (stereo partly shown) [Atropine methyl nitrate],Raw Signal,[1],60117
same,Z-score,[2],0.3882
C/C=C(/C)C(=O)O[C@H]1C(C)=C2[C@H]([C@@H]1OC(=O)CCCCCCC)[C@@](C)(OC(C)=O)C[C@H](OC(=O)CCC)[C@@]1(O)[C@H]2OC(=O)[C@@]1(C)O [Thapsigargin],Raw Signal,[3],56574
same,Z-score,[5],0.1069
Nc1nnc(-c2cccc(Cl)c2Cl)c(N)n1 [Lamotrigine],Raw Signal,[3],53800
same,Z-score,[4],-0.09973
N[C@H](CO)C(=O)O [D-Serine],Raw Signal,[3],53973
same,Z-score,[4],-0.3984
CCCCCCCCCCCCCCCC(=O)NCCO [Palmitoylethanolamide],Raw Signal,[6],51451
same,Z-score,[7],-0.4944
Cc1cc(NC(=O)Nc2ccc3c(ccn3C)c2)sn1 [SB 204741],Raw Signal,[3],55947
same,Z-score,[4],-0.3463
CC(NCCc1ccc(O)cc1)C(O)c1ccc(O)cc1 (stereo not shown) [Ritodrine hydrochloride],Raw Signal,[1],59316
same,Z-score,[2],0.6396
C[n+]1cc2c3c(ccc2c2ccc4cc5c(cc4c21)OCO5)OCO3 [Sanguinarine chloride],Raw Signal,[6],52602
same,Z-score,[7],-0.6648
CC1CN(S(=O)(=O)c2cccc3cnccc23)CCN1.Cl.Cl (stereo not shown),Raw Signal,[3],53944
same,Z-score,[5],-0.07553
COc1ccc2[nH]c(I)c(CCNC(C)=O)c2c1 [2-Iodomelatonin],Raw Signal,[3],55940
same,Z-score,[5],0.157
COc1cc(NS(C)(=O)=O)ccc1Nc1c2ccccc2nc2ccccc12 [Amsacrine hydrochloride],Raw Signal,[3],58568
same,Z-score,[5],0.1153
Cl.NCCCCNS(=O)(=O)c1ccc2c(Cl)cccc2c1,Raw Signal,[3],59537
same,Z-score,[5],0.286
Cc1nccc2c1[nH]c1ccccc12 [Harmane],Raw Signal,[6],51802
same,Z-score,[7],-0.6834
"Nc1ccc2c3c(cccc13)C(=O)NC2=O [4-Amino-1,8-naphthalimide]",Raw Signal,[6],55002
same,Z-score,[7],-0.5127
CCN(CC)C(=O)N[C@H]1C[C@@H]2c3cccc4[nH]cc(c34)C[C@H]2N(C)C1 [R(+)-Terguride],Raw Signal,[1],59619
same,Z-score,[2],0.6985
CNC(=O)OCC[N+](C)(C)C [Methylcarbamylcholine chloride],Raw Signal,[1],60360
same,Z-score,[2],1.003
CSc1ccc(C(=O)c2[nH]c(=O)[nH]c2C)cc1 [Enoximone],Raw Signal,[6],64614
same,Z-score,[8],1.919
Cc1cccc(C)c1N=C1NCCCS1 [Xylazine hydrochloride],Raw Signal,,56727
same,Z-score,,0.1366
Cc1c(OCC(F)(F)F)ccnc1C[S+]([O-])c1nc2ccccc2[nH]1 (stereo not shown) [Lansoprazole],Raw Signal,[3],53701
same,Z-score,[4],-0.1164
Cl.NCCC[C@](N)(C(=O)O)C(F)F (racemic),Raw Signal,[6],51967
same,Z-score,[7],-0.6499
CN(C)C(=O)Oc1cccc([N+](C)(C)C)c1 [Neostigmine bromide],Raw Signal,[3],55937
same,Z-score,[5],0.2593
N[C@H](CCC(=O)NCS(=O)(=O)O)C(=O)O [gamma-D-Glutamylaminomethylsulfonic acid],Raw Signal,[1],58321
same,Z-score,[2],0.6405
O=C1OC(=O)[C@H]2[C@@H]1[C@@H]1CC[C@H]2O1 [Norcantharidin],Raw Signal,[3],52142
same,Z-score,[4],-0.3783
CC(=O)NBr [N-Bromoacetamide],Raw Signal,[1],65186
same,Z-score,[2],1.281
c1ccc2c(c1)[I+]c1ccccc1-2 [Diphenyleneiodonium chloride],Raw Signal,[1],59663
same,Z-score,[2],0.9131
"O=C(O)/C(=C/c1c(C(=O)O)[nH]c2cc(Cl)cc(Cl)c12)c1ccccc1 [MDL 105,519]",Z-score,,0.03839
C=CCN1CC[C@]23c4c5ccc(O)c4O[C@H]2C(=O)CC[C@@]3(O)[C@H]1C5 [Naloxone hydrochloride],Raw Signal,[3],55041
same,Z-score,[5],0.1088
"Cl.O=c1cc(N2CCOCC2)oc2c(-c3ccccc3)cccc12 [LY-294,002 hydrochloride]",Raw Signal,[6],50825
same,Z-score,[7],-0.5996
CN(C)CCCN1c2ccccc2Sc2ccc(C(F)(F)F)cc21 [Triflupromazine hydrochloride],Raw Signal,[3],54007
same,Z-score,[4],-0.3918
CP(=O)(O)CCCN.Cl [SKF 97541 hydrochloride],Raw Signal,[3],57179
same,Z-score,[4],-0.1293
NC(=O)OCC(COC(N)=O)c1ccccc1 [Felbamate],Raw Signal,[1],58283
same,Z-score,[2],0.6328
O=C(c1ccc(OCCN2CCCCC2)cc1)c1c(-c2ccc(O)cc2)sc2cc(O)ccc12 [Raloxifene hydrochloride],Raw Signal,[3],54124
same,Z-score,[4],-0.3691
COCc1nc2c([nH]1)c(=O)n(C)c(=O)n2CC(C)C,Raw Signal,[3],51997
same,Z-score,[4],-0.4027
CC(=O)[C@]1(O)Cc2c(O)c3c(c(O)c2[C@@H](O[C@H]2C[C@H](N)[C@H](O)[C@H](C)O2)C1)C(=O)c1ccccc1C3=O [Idarubicin],Raw Signal,[3],55218
same,Z-score,[5],0.01035
CC(N)Cc1c[nH]c2ccc(OCc3cccs3)cc12 (stereo not shown) [BW 723C86],Raw Signal,[6],55162
same,Z-score,[7],-0.4845
COc1ccccc1N1CCN(CCN(C(=O)C2CCCCC2)c2ccccn2)CC1.O=C(O)/C=C\C(=O)O [WAY-100635 maleate],Raw Signal,[3],54317
same,Z-score,[4],-0.3316
"CC(=O)[C@H]1CC[C@H]2[C@@H]3CC[C@H]4C[C@H](O)CC[C@]4(C)[C@H]3C(=O)C[C@]12C [5alpha-Pregnan-3alpha-ol-11,20-dione]",Raw Signal,[1],56964
same,Z-score,[2],0.4319
Cl.N[C@@H](CCl)C(=O)O [beta-Chloro-L-alanine hydrochloride],Raw Signal,[3],58972
same,Z-score,[5],0.1865
COc1cccc(OC)c1OCCNCC1COc2ccccc2O1.Cl (stereo not shown) [WB-4101 hydrochloride],Raw Signal,[1],58268
same,Z-score,[2],0.6298
CC(N)=O [Acetamide],Raw Signal,[1],63288
same,Z-score,[2],0.9467
CCN(CC)CCOC(=O)c1ccc(N)cc1 [Procaine hydrochloride],Raw Signal,[1],61379
same,Z-score,[2],1.04
CCCc1c(-c2ccc(O)cc2)nn(-c2ccc(O)cc2)c1-c1ccc(O)cc1,Raw Signal,[6],52149
same,Z-score,[7],-0.6129
"C[C@]12CCC(=O)C(O)=C1CC[C@@H]1[C@@H]2CC[C@]2(C)C(=O)CC[C@@H]12 [4-Androsten-4-ol-3,17-dione]",Raw Signal,[6],53811
same,Z-score,[7],-0.7225
"N=C(N)NC(=O)c1nc(Cl)c(N2CCCCCC2)nc1N [5-(N,N-hexamethylene)amiloride]",Raw Signal,[3],56870
same,Z-score,[4],-0.1837
CC(=N)NCCC[C@H](N)C(=O)O.Cl,Raw Signal,[3],54044
same,Z-score,[5],-0.05873
COc1cc(C(=O)OCCCN2CCCN(CCCOC(=O)c3cc(OC)c(OC)c(OC)c3)CC2)cc(OC)c1OC [Dilazep hydrochloride],Raw Signal,[3],56027
same,Z-score,[5],0.1747
C=C(C)[C@H]1CC=C(C(=O)O)CC1 [(-)-Perillic acid],Raw Signal,[1],58838
same,Z-score,[2],0.5467
O=C(Nc1ccc([N+](=O)[O-])cc1Cl)c1cc(Cl)ccc1O [Niclosamide],Raw Signal,[3],53914
same,Z-score,[5],-0.08057
CCCCCCCCCCCCCC(=O)O[C@@H]1[C@@H](C)[C@@]2(O)[C@@H](C=C(CO)C[C@]3(O)C(=O)C(C)=C[C@@H]23)[C@@H]2C(C)(C)[C@]12OC(C)=O [Phorbol 12-myristate 13-acetate],Raw Signal,[3],57693
same,Z-score,[5],0.3243
C[C@@]12N[C@@H](Cc3ccccc31)c1ccccc12.O=C(O)/C=C\C(=O)O [(-)-MK-801 hydrogen maleate],Raw Signal,[1],58481
same,Z-score,[2],0.6868
S(-)-DS 121 hydrochloride,Raw Signal,[3],56472
same,Z-score,[5],0.265
COc1cccc(OC)c1OCCNCC1CSc2ccccc2O1 (stereo not shown) [Benoxathian hydrochloride],Raw Signal,[3],57648
same,Z-score,[5],-0.04669
CN(C)C(=O)Oc1ccc[n+](C)c1 [Pyridostigmine bromide],Raw Signal,[3],56672
same,Z-score,[5],0.1259
O=C(O)C1CCNCC1 [Isonipecotic acid],Raw Signal,[3],51826
same,Z-score,[4],-0.4314
C#CC(N)CCC(=O)O (stereo not shown) [gamma-Acetylinic GABA],Raw Signal,[6],54991
same,Z-score,[7],-0.5147
Cc1c2ccncc2c(C)c2c1[nH]c1ccccc12 [Ellipticine],Raw Signal,[6],50782
same,Z-score,[7],-0.8906
COc1ccc2c(c1)c(CC(=O)O)c(C)n2Cc1ccc(Cl)cc1,Raw Signal,[1],64773
same,Z-score,[2],1.208
N=C(N)NC(=N)Nc1ccccc1 [1-Phenylbiguanide],Raw Signal,[6],52325
same,Z-score,[7],-0.7186
